Measured values published in ChEMBL document CHEMBL2401646 (Bioorg Med Chem Lett, 2013).
Converted amounts (≈) assume the structure as drawn.

What was measured:
[1] = Antitumor activity against human U87MG cells xenografted in nu/nu CD1 mouse model assessed as tumor growth inhibition at 200 mg/kg, po qd for 14 days; type: functional, U-87MG ATCC; conditions: U-87 MG, 336 h, read-out: TGI
[2] = Protein binding in mouse plasma by equilibrium dialysis; type: ADME, cell-free; conditions: read-out: PPB (converted)
Mus musculus [3] = assay: Inhibition of MET autophosphorylation at Y1234/1235 in human MKN45 cells xenografted in mouse at 100 mg/kg, po up to 8 hrs; type: functional; conditions: MKN-45, 8 h
SNU-5 [4] = assay: Antitumor activity against human SNU5 cells xenografted in nu/nu CD1 mouse model assessed as tumor growth inhibition at 200 mg/kg, po qd for 20 days; conditions: SNU-5, po, 480 h, read-out: TGI
[5] = target: ALK tyrosine kinase receptor (Homo sapiens, UniProt Q9UM73); assay: Inhibition of ALK autophosphorylation in human Karpas-299 cells; type: cell-based
MKN-45 = assay: Antiproliferative activity against human MKN45 cells after 3 days by CellTiter-Glo assay; type: functional, cell-based; conditions: MKN-45, 72 h
SNU-5 [6] = assay: Antitumor activity against human SNU5 cells xenografted in nu/nu CD1 mouse model assessed as tumor growth inhibition at 100 mg/kg, po qd for 20 days; conditions: SNU-5, po, 480 h, read-out: TGI
SNU-5 [7] = assay: Antitumor activity against human SNU5 cells xenografted in nu/nu CD1 mouse model assessed as maximum tumor regression at 100 mg/kg, po qd for 20 days
[8] = Antitumor activity against human U87MG cells xenografted in nu/nu CD1 mouse model assessed as maximum tumor regression at 200 mg/kg, po qd for 14 days; type: functional, U-87MG ATCC
[9] = Antitumor activity against human U87MG cells xenografted in nu/nu CD1 mouse model assessed as maximum tumor regression at 50 mg/kg, po bid for 14 days; type: functional, U-87MG ATCC
Mus musculus [10] = assay: Toxicity in human U87MG cells xenografted nu/nu CD1 mouse model assessed as body weigh loss at 200 mg/kg, po qd for 14 days; type: organism-based, U-87MG ATCC; set-up: dose 200 mg/kg, route oral; conditions: in vivo, 336 h
[11] = Antitumor activity against human U87MG cells xenografted in nu/nu CD1 mouse model assessed as maximum tumor regression at 100 mg/kg, po qd for 14 days; type: functional, U-87MG ATCC
[12] = AUC (0 to last) in Sprague-Dawley rat at 20 mg/kg, po; type: ADME, organism-based; set-up: time 0 - last, dose 20 mg/kg, route oral; conditions: plasma
Mus musculus [13] = assay: Toxicity in human U87MG cells xenografted nu/nu CD1 mouse model assessed as body weigh loss at 50 mg/kg, po qd for 14 days; type: organism-based, U-87MG ATCC; set-up: dose 50 mg/kg, route oral; conditions: in vivo, 336 h
[14] = Antitumor activity against human U87MG cells xenografted in nu/nu CD1 mouse model assessed as maximum tumor regression at 50 mg/kg, po qd for 14 days; type: functional, U-87MG ATCC
[15] = target: T1, Hepatocyte growth factor receptor (Homo sapiens, UniProt P08581); assay: Inhibition of cMET (unknown origin) using biotinylated poly(Glu,Tyr) as substrate after 60 mins
[16] = Antitumor activity against human U87MG cells xenografted in nu/nu CD1 mouse model assessed as tumor growth inhibition at 100 mg/kg, po qd for 14 days; type: functional, U-87MG ATCC; conditions: U-87 MG, 336 h, read-out: TGI
[17] = Solubility of the compound at pH 4.5; type: physicochemical; conditions: buffer
Mus musculus [18] = assay: Toxicity in human SNU5 cells xenografted nu/nu CD1 mouse model assessed as body weigh loss at 200 mg/kg, po qd for 20 days; conditions: in vivo, 480 h
[19] = target: T1, Hepatocyte growth factor receptor; assay: Inhibition of cMET in human MKN45 cells assessed as phosphorylated MET levels after 4 hrs in presence of mouse plasma; type: cell-based, MKN-45
[20] = Solubility of the compound at around physiological pH; type: physicochemical
Mus musculus [21] = assay: Toxicity in human U87MG cells xenografted nu/nu CD1 mouse model assessed as body weigh loss at 100 mg/kg, po qd for 14 days; type: organism-based, U-87MG ATCC; set-up: dose 100 mg/kg, route oral; conditions: in vivo, 336 h
[22] = Protein binding in human plasma by equilibrium dialysis; type: ADME, cell-free; conditions: read-out: PPB (converted)
[23] = Plasma concentration in human MKN45 cells xenografted in mouse at 100 mg/kg, po up to 8 hrs; type: ADME, organism-based, MKN-45; set-up: dose 100 mg/kg, route oral
[24] = Volume of distribution at steady state in Sprague-Dawley rat at 2 mg/kg, iv; type: ADME, organism-based; set-up: dose 2 mg/kg, route intravenous; conditions: in vivo, read-out: Vdss
[25] = Antitumor activity against human U87MG cells xenografted in nu/nu CD1 mouse model assessed as maximum tumor regression at 100 mg/kg, po bid for 14 days; type: functional, U-87MG ATCC
[26] = target: T1, Hepatocyte growth factor receptor; assay: Inhibition of cMET in human MKN45 cells assessed as phosphorylated MET levels after 4 hrs; type: cell-based, MKN-45
SNU-5 [27] = assay: Antitumor activity against human SNU5 cells xenografted in nu/nu CD1 mouse model assessed as maximum tumor regression at 200 mg/kg, po qd for 20 days
Salmonella typhimurium [28] = assay: Mutagenic activity in Salmonella typhimurium TA100 by Ames test in absence of liver S9 fraction; type: toxicity, organism-based; conditions: salmonella enterica subsp. enterica serovar typhimurium
[29] = Half life in Sprague-Dawley rat at 2 mg/kg, iv; type: ADME, organism-based; set-up: dose 2 mg/kg, route intravenous; conditions: in vivo
Mus musculus [30] = assay: Toxicity in human SNU5 cells xenografted nu/nu CD1 mouse model assessed as body weigh loss at 50 mg/kg, po qd for 20 days; conditions: in vivo, 480 h
[31] = target: Hepatocyte growth factor receptor (Homo sapiens, UniProt P08581, Y1230H); assay: Inhibition of cMET Y1230H mutant (unknown origin) autophosphorylation
[32] = target: Macrophage-stimulating protein receptor (Homo sapiens, UniProt Q04912); assay: Inhibition of short-form RON (unknown origin) expressed in human HeLa cells assessed as phosphorylated RON levels after 4 hrs; type: cell-based
SNU-5 [33] = assay: Antitumor activity against human SNU5 cells xenografted in nu/nu CD1 mouse model assessed as tumor growth inhibition at 50 mg/kg, po qd for 20 days; conditions: SNU-5, po, 480 h, read-out: TGI
[34] = Clearance in Sprague-Dawley rat at 2 mg/kg, iv; type: ADME, organism-based; set-up: dose 2 mg/kg, route intravenous; conditions: in vivo
Salmonella typhimurium [35] = assay: Mutagenic activity in Salmonella typhimurium TA98 by Ames test in presence of liver S9 fraction; type: toxicity, organism-based; conditions: salmonella enterica subsp. enterica serovar typhimurium
Mus musculus [36] = assay: Toxicity in human U87MG cells xenografted nu/nu CD1 mouse model assessed as body weigh loss at 50 mg/kg, po bid for 14 days; type: organism-based, U-87MG ATCC; set-up: dose 50 mg/kg, route oral; conditions: in vivo, 336 h
[37] = Clearance in CD1 mouse at 2 mg/kg, iv; type: ADME, organism-based; set-up: dose 2 mg/kg, route intravenous; conditions: in vivo
[38] = Permeability of the compound at pH 7.4 by PAMPA; type: ADME; conditions: read-out: permeability
[39] = Plasma concentration in human MKN45 cells xenografted in mouse at 100 mg/kg, po after 16 hrs; type: ADME, organism-based, MKN-45; set-up: dose 100 mg/kg, route oral
Mus musculus [40] = assay: Toxicity in human SNU5 cells xenografted nu/nu CD1 mouse model assessed as body weigh loss at 100 mg/kg, po qd for 20 days; conditions: in vivo, 480 h

fraction unbound [2]: 0.018
IC50 [5]: 500 nM
IC50 (MKN-45): 130 nM
AUC(0-t) [12]: 6200 ng·h/mL
IC50 [15]: 26 nM
solubility [17]: 11 µM (≈ 5.12 µg/mL)
IC50 [19]: 600 nM
solubility [20]: 1 µM (≈ 0.465 µg/mL)
fraction unbound [22]: 0.019
concentration at 8 h [23]: > 3000 nM
Vd [24]: 6.8 L/kg
IC50 [26]: 42 nM
half-life [29]: 120 min
IC50 [31]: 110 nM
IC50 [32]: 200 nM
clearance [34]: 39 mL/min/kg
clearance [37]: 51 mL/min/kg
Papp [38]: 359 ×10⁻⁶ cm/s
concentration at 16 h [39]: 520 nM
SMILES: C[C@@H](Oc1c(N)ncc2c(C3=CCN(C(N)=O)CC3)coc12)c1c(Cl)ccc(F)c1Cl
inhibition in vivo at 200 mg/kg [1]: 94%
inhibition in vivo at 100 mg/kg (Mus musculus [3]): > 80%
inhibition in vivo at 200 mg/kg (SNU-5 [4]): 100%
inhibition in vivo at 100 mg/kg (SNU-5 [6]): 100%
Activity (SNU-5 [7]): 64%
Activity [8]: 8%
Activity [9]: 0%
Activity (Mus musculus [10]): 0%
Activity [11]: 0%
Activity (Mus musculus [13]): 0%
Activity [14]: 0%
inhibition in vivo at 100 mg/kg [16]: 79%
Activity (Mus musculus [18]): 4%
Activity (Mus musculus [21]): 0%
Activity [25]: 22%
Activity (SNU-5 [27]): 80%
Activity (Salmonella typhimurium [28]): Non-toxic
Activity (Mus musculus [30]): 4%
inhibition in vivo at 50 mg/kg (SNU-5 [33]): 100%
Activity (Salmonella typhimurium [35]): Non-toxic
Activity (Mus musculus [36]): 5%
Activity (Mus musculus [40]): 2%
